The values below come from patent publication US20220226444A1, “FORMULATIONS OF FOSAPREPITANT AND APREPITANT” (Zhuhai Beihai Biotech Co., Ltd., priority 2016, published 2022).

For series [1] the following is noted: cited from earlier work.
A short description of series [2]: Stability of fosaprepitant in a human serum albumin (HSA) solution, visual clarity. Format: physicochemical. Particulars: for appearance of solution initially: 25° C.; for appearance of solution over time: after 1, 2, 3, 4, 6, 8 and 24 hours at 25° C. On the procedure: To 3 different vials containing 25 mg of fosaprepitant dimeglumine each were added 1 ml of 10% HSA solution (w/v), 1 ml of 5% HSA solution (w/v), and 1 ml of 2% HSA solution (w/v), respectively, at 25° C.

Series [3] is described as follows: pH value of the aqueous solution with or without HSA. Format: physicochemical. To be noted: about 25° C. On the procedure: 245.3 mg of fosaprepitant dimeglumine and 0.28 mg of palonosetron hydrochloride were dissolved in methanol, and then methanol was removed from the solution to give a white solid.
Setting [4] is: 25 mg in 1 ml of 2% HSA solution (w/v).
Where [5] appears, read: 25 mg in 1 ml of 5% HSA solution (w/v).
Where [6] appears, read: 25 mg in 1 ml of 10% HSA solution (w/v).

The structures appear in SMILES notation. Entries after “also recorded” stand apart in the source; their conditions may differ.

With `C[C@@H](O[C@H]1OCCN(Cc2n[nH]c(=O)[nH]2)[C@H]1c1ccc(F)cc1)c1cc(C(F)(F)F)cc(C(F)(F)F)c1` [Aprepitant, aprepitant], the solubility in acetonitrile result in series [1] (acetonitrile) is recorded as “slightly soluble”. The solubility in ethanol result in series [1] (ethanol) was “sparingly soluble”. Further, in series [1] (isopropyl acetate), the “solubility in isopropyl acetate” value was “sparingly soluble”. In series [1], the solubility in water entry is recorded as “practicallyinsoluble; also recorded: insoluble”.
In the case of `C[C@@H](O[C@H]1OCCN(Cc2nn(P(=O)(O)O)c(=O)[nH]2)[C@H]1c1ccc(F)cc1)c1cc(C(F)(F)F)cc(C(F)(F)F)c1` [fosaprepitant dimeglumine], the “appearance of solution initially” value in series [2] (setting [4]), in series [2] (setting [5]) and in series [2] (setting [6]) was “clear aqueous solution” each time. The “appearance of solution over time” value in series [2] (setting [4]), in series [2] (setting [5]) and in series [2] (setting [6]) was “stayed clear” each time. The results for the “pH value of the clear aqueous solution” value in series [3] (24.5 mg in 15 ml of 0.9% saline solution) and in series [3] (24.5 mg in 15 ml of HSA solution (0.5 ml of 20% HSA + 14.5 ml of 0.9% saline)) were 7.70 and 7.15, respectively.
In the case of `C[C@@H](O[C@H]1OCCN(Cc2nc(O)n(P(=O)(O)O)n2)[C@H]1c1ccc(F)cc1)c1cc(C(F)(F)F)cc(C(F)(F)F)c1` [fosaprepitant], the solubility in water result in series [1] was “soluble”.
